Reference: patent US8993574B2, “Pyrrole antifungal agents” (F2G Ltd, priority 2008, dated 2015)
≈ marks a conversion by molar mass, not a printed value.

Key:
Format in all cases: cell-based
Aspergillus flavus [1] = assay: MIC, RPMI medium; settings: MIC banded into grades; for MIC: Aspergillus flavus, read-out: MIC grade, A. flavus
Protocol: (§1) Between 1 and 5 mgs of compound were accurately weighed out into a sterile Eppendorf tube. The compound was dissolved in DMSO to give a solution containing 5 mg/mL. Tubes were stored at −20° C. until required.
(§2) On the day of testing thawed solutions were vortex mixed to ensure homogeneity. 30 μL of solution was removed and added to 570 μL of sterile water in a separate sterile Eppendorf. The thoroughly mixed solution was used to prepare a series of doubling dilutions in water, in a deep well plate. Thirteen replicate plates were prepared using a Minitrak by aspirating 20 μL from each well into eleven clear polystyrene 96 well plates.
(§3) Assays were also performed in RPMI medium for both Aspergillus spp. (strains described above) and Candida spp. (Candida albicans, Candida glabrata, Candida krusei, Candida parapsilosis and Candida tropicalis). To perform MIC tests in this medium, dilutions of compounds are prepared in microtitre plates as described above. Fungal strains to be tested are grown and harvested in an identical manner to that described above, and each organism suspension was diluted in RPMI medium, containing 2% glucose and 0.135 M MOPS buffer (pH 7.0) to 0.5-2×10^4 cfu/mL, rather than in YAG medium. 80 μL of an organism suspension was added to each well of the plate containing drug dilutions.
(§4) This produced MIC plates with a drug range 50-0.05 mg/L and organism inocula of 1−2×10^4 cfu/mL. All plates were incubated for 24-48 h at 35° C. Growth was assessed by monitoring the optical density at 485 nm for each well. The MIC of a compound is the lowest drug concentration that inhibits growth of an organism by >80% compared with a drug free control.
(§5) The following organisms were tested: Aspergillus flavus, Aspergillus fumigatus AF293 and AF210, Aspergillus niger, Aspergillus terreus AT4 and AT49, Candida albicans, Candida glabrata, Candida krusei, Candida parapsilosis and Candida tropicalis.

[2] = tested on: Aspergillus fumigatus AF210; assay: MIC, RPMI medium; settings: for MIC grade, A. fumigatus 210: MIC banded into grades; for MIC: Aspergillus fumigatus, AF210, MIC banded into grades, read-out: MIC grade, A. fumigatus 210
Protocol: as §1, §2, §3, §4, §5

Aspergillus niger [3] = assay: MIC, RPMI medium; settings: MIC banded into grades; for MIC: Aspergillus niger, read-out: MIC grade, A. niger
Protocol: as §1, §2, §3, §4, §5

[4] = tested on: Aspergillus fumigatus AF293; assay: MIC, RPMI medium; settings: for MIC grade, A. fumigatus: MIC banded into grades; for MIC: Aspergillus fumigatus, AF293, MIC banded into grades, read-out: MIC grade, A. fumigatus
Protocol: as §1, §2, §3, §4, §5

Aspergillus terreus AT49 [5] = assay: MIC, RPMI medium; settings: for MIC grade, A. terreus 49: MIC banded into grades; for MIC: Aspergillus terreus, AT49, MIC banded into grades, read-out: MIC grade, A. terreus 49
Protocol: as §1, §2, §3, §4, §5

Aspergillus terreus AT4 [6] = assay: MIC, RPMI medium; settings: for MIC grade, A. terreus: MIC banded into grades; for MIC: Aspergillus terreus, AT4, MIC banded into grades, read-out: MIC grade, A. terreus
Protocol: as §1, §2, §3, §4, §5

Aspergillus flavus [7] = assay: MIC, YAG medium; settings: 24 h at 35° C, MIC banded into grades; for MIC: Aspergillus flavus, 24 h, read-out: MIC grade, A. flavus
Protocol: as §1, §2
(§6) Spores of Aspergillus spp. (Aspergillus fumigatus [two strains], Aspergillus terreus [two strains], Aspergillus niger and Aspergillus flavus) were harvested from cultures grown on Sabarauds agar for 5 days, and resuspended in PBS/Tween 80 to approx 1×10^7 cfu/mL. Each organism suspension was diluted in YAG medium (1% glucose, 1% ammonium chloride and 0.5% yeast extract) to 0.5−2×10^4 cfu/mL. 80 μL of an organism suspension was added to each well of the plate containing drug dilutions.
as §4, with “cfu/mL for Aspergillus spp.” for “cfu/mL.”, “24” for “24-48”, “>70%” for “>80%”, “control. MICs are recorded as mg/L. In cases where the MIC of an organism is […] mg/L the MIC is repeated using a concentration range of 0.5-0.0005 mg/L.” for “control.”
as §5

[8] = tested on: Aspergillus fumigatus AF210; assay: MIC, YAG medium; settings: 24 h at 35° C, MIC banded into grades; for MIC: Aspergillus fumigatus, read-out: MIC grade, A. fumigatus 210
Protocol: as §1, §2, §6
as §4, with “cfu/mL for Aspergillus spp.” for “cfu/mL.”, “24” for “24-48”, “>70%” for “>80%”, “control. MICs are recorded as mg/L. In cases where the MIC of an organism is […] mg/L the MIC is repeated using a concentration range of 0.5-0.0005 mg/L.” for “control.”
as §5

Aspergillus niger [9] = assay: MIC, YAG medium; settings: 24 h at 35° C, MIC banded into grades; for MIC: Aspergillus niger, read-out: MIC grade, A. niger
Protocol: as §1, §2, §6
as §4, with “cfu/mL for Aspergillus spp.” for “cfu/mL.”, “24” for “24-48”, “>70%” for “>80%”, “control. MICs are recorded as mg/L. In cases where the MIC of an organism is […] mg/L the MIC is repeated using a concentration range of 0.5-0.0005 mg/L.” for “control.”
as §5

[10] = tested on: Aspergillus fumigatus AF293; assay: MIC, YAG medium; settings: 24 h at 35° C, MIC banded into grades; for MIC: Aspergillus fumigatus, read-out: MIC grade, A. fumigatus
Protocol: as §1, §2, §6
as §4, with “cfu/mL for Aspergillus spp.” for “cfu/mL.”, “24” for “24-48”, “>70%” for “>80%”, “control. MICs are recorded as mg/L. In cases where the MIC of an organism is […] mg/L the MIC is repeated using a concentration range of 0.5-0.0005 mg/L.” for “control.”
as §5

Aspergillus terreus AT49 [11] = assay: MIC, YAG medium; settings: 24 h at 35° C, MIC banded into grades; for MIC: Aspergillus terreus, read-out: MIC grade, A. terreus 49
Protocol: as §1, §2, §6
as §4, with “cfu/mL for Aspergillus spp.” for “cfu/mL.”, “24” for “24-48”, “>70%” for “>80%”, “control. MICs are recorded as mg/L. In cases where the MIC of an organism is […] mg/L the MIC is repeated using a concentration range of 0.5-0.0005 mg/L.” for “control.”
as §5

Aspergillus terreus AT4 [12] = assay: MIC, YAG medium; settings: 24 h at 35° C, MIC banded into grades; for MIC: Aspergillus terreus, read-out: MIC grade, A. terreus
Protocol: as §1, §2, §6
as §4, with “cfu/mL for Aspergillus spp.” for “cfu/mL.”, “24” for “24-48”, “>70%” for “>80%”, “control. MICs are recorded as mg/L. In cases where the MIC of an organism is […] mg/L the MIC is repeated using a concentration range of 0.5-0.0005 mg/L.” for “control.”
as §5

SMILES: Cc1cc(C)nc(N2CCN(c3ccc(NC(=O)C(=O)c4c(-c5ccccc5)cc5n4CCCCC5)cc3)CC2)c1 [41 a]
- MIC grade, A. flavus (Aspergillus flavus [1]): 1 (a grade of 1 represents an MIC of greater than 10 mg/L)
- MIC grade, A. fumigatus 210 [2]: 1 (a grade of 1 represents an MIC of greater than 10 mg/L)
- MIC grade, A. niger (Aspergillus niger [3]): 1 (a grade of 1 represents an MIC of greater than 10 mg/L)
- MIC grade, A. fumigatus [4]: 2 (A grade of 2 represents an MIC of from 1 to 10 mg/L)
- MIC grade, A. terreus 49 (Aspergillus terreus AT49 [5]): 3 (A grade of 3 represents an MIC of less than 1 mg/L)
- MIC grade, A. terreus (Aspergillus terreus AT4 [6]): 2 (A grade of 2 represents an MIC of from 1 to 10 mg/L)
- MIC grade, A. flavus (Aspergillus flavus [7]): 3 (A grade of 3 represents an MIC of less than 1 mg/L)
- MIC grade, A. fumigatus 210 [8]: 3 (A grade of 3 represents an MIC of less than 1 mg/L)
- MIC grade, A. niger (Aspergillus niger [9]): 3 (A grade of 3 represents an MIC of less than 1 mg/L)
- MIC grade, A. fumigatus [10]: 3 (A grade of 3 represents an MIC of less than 1 mg/L)
- MIC grade, A. terreus 49 (Aspergillus terreus AT49 [11]): 3 (A grade of 3 represents an MIC of less than 1 mg/L)
- MIC grade, A. terreus (Aspergillus terreus AT4 [12]): 3 (A grade of 3 represents an MIC of less than 1 mg/L)

SMILES: Cc1cc(C)nc(N2CCN(c3ccc(NC(=O)C(=O)c4cc(-c5ccccc5)c5n4CCCCC5)cc3)CC2)c1 [41 b]
- MIC grade, A. flavus (Aspergillus flavus [1]): 1 (a grade of 1 represents an MIC of greater than 10 mg/L)
- MIC grade, A. fumigatus 210 [2]: 1 (a grade of 1 represents an MIC of greater than 10 mg/L)
- MIC grade, A. niger (Aspergillus niger [3]): 1 (a grade of 1 represents an MIC of greater than 10 mg/L)
- MIC grade, A. fumigatus [4]: 2 (A grade of 2 represents an MIC of from 1 to 10 mg/L)
- MIC grade, A. terreus 49 (Aspergillus terreus AT49 [5]): 1 (a grade of 1 represents an MIC of greater than 10 mg/L)
- MIC grade, A. terreus (Aspergillus terreus AT4 [6]): 1 (a grade of 1 represents an MIC of greater than 10 mg/L)
- MIC grade, A. flavus (Aspergillus flavus [7]): 1 (a grade of 1 represents an MIC of greater than 10 mg/L)
- MIC grade, A. fumigatus 210 [8]: 2 (A grade of 2 represents an MIC of from 1 to 10 mg/L)
- MIC grade, A. niger (Aspergillus niger [9]): 1 (a grade of 1 represents an MIC of greater than 10 mg/L)
- MIC grade, A. fumigatus [10]: 2 (A grade of 2 represents an MIC of from 1 to 10 mg/L)
- MIC grade, A. terreus 49 (Aspergillus terreus AT49 [11]): 1 (a grade of 1 represents an MIC of greater than 10 mg/L)
- MIC grade, A. terreus (Aspergillus terreus AT4 [12]): 1 (a grade of 1 represents an MIC of greater than 10 mg/L)

SMILES: Cc1cc(C)nc(N2CCN(c3ccc(NC(=O)C(=O)c4cccn4-c4ccccc4)cc3)CC2)c1 [Example 2, N-{4-[4-(4,6-Dimethyl-pyridin-2-yl)-piperazin-1-yl]-phenyl}-2-oxo-2-(1-phenyl-1H-pyrrol-2-yl)-acetamide]
- MIC (Aspergillus flavus [1]): > 10 µg/mL
- MIC [2]: > 10 µg/mL
- MIC (Aspergillus niger [3]): > 10 µg/mL
- MIC [4]: > 10 µg/mL
- MIC (Aspergillus terreus AT49 [5]): > 10 µg/mL
- MIC (Aspergillus terreus AT4 [6]): > 10 µg/mL
- MIC (Aspergillus flavus [7]): < 1 µg/mL
- MIC [8]: 1 to 10 µg/mL (≈ 2.09 to 20.9 µM)
- MIC (Aspergillus niger [9]): > 10 µg/mL
- MIC [10]: 1 to 10 µg/mL (≈ 2.09 to 20.9 µM)
- MIC (Aspergillus terreus AT49 [11]): < 1 µg/mL
- MIC (Aspergillus terreus AT4 [12]): < 1 µg/mL

SMILES: Cc1cc(C)nc(N2CCN(c3ccc(NC(=O)C(=O)c4ccc(C)n4-c4ccccc4)cc3)CC2)c1 [Example 3, N-{4-[4-(4,6-Dimethyl-pyridin-2-yl)-piperazin-1-yl]-phenyl}-2-(5-methyl-1-phenyl-1H-pyrrol-2-yl)-2-oxo-acetamide]
- MIC (Aspergillus flavus [1]): > 10 µg/mL
- MIC [2]: > 10 µg/mL
- MIC (Aspergillus niger [3]): > 10 µg/mL
- MIC [4]: > 10 µg/mL
- MIC (Aspergillus terreus AT49 [5]): 1 to 10 µg/mL (≈ 2.03 to 20.3 µM)
- MIC (Aspergillus terreus AT4 [6]): 1 to 10 µg/mL (≈ 2.03 to 20.3 µM)
- MIC (Aspergillus flavus [7]): 1 to 10 µg/mL (≈ 2.03 to 20.3 µM)
- MIC [8]: 1 to 10 µg/mL (≈ 2.03 to 20.3 µM)
- MIC (Aspergillus niger [9]): > 10 µg/mL
- MIC [10]: > 10 µg/mL
- MIC (Aspergillus terreus AT49 [11]): < 1 µg/mL
- MIC (Aspergillus terreus AT4 [12]): < 1 µg/mL
